Source: patent US20140286906A1, “USE OF IGF-1 IN THE MODULATION OF TREG CELL ACTIVITY AND THE TREATMENT AND PREVENTION OF AUTOIMMUNE DISORDERS OR DISEASES” (priority 2011, published 2014)

How the values were obtained:
[1] = system: STZ induced diabetes; assay: streptozotocin (STZ) induced autoimmune diabetes, systemic rhIGF-1 delivery; format: in vivo, mice
Excerpt: Regarding the functional assay for diabetes a protocol that measures the clearance of a standardized glucose load from the body after intraperitoneal injection was used (intraperitoneal glucose tolerance test, see Heikkinen et al. (2007)).
Beta-cells sense glucose levels and release insulin to maintain physiologic glucose levels within a relatively narrow range. Destruction of beta-cells by the immune system is correlated with the inability to control glucose levels (measured by the glucose tolerance test). Another way to assess whether IGF-1 stimulates proliferation and/or recruitment of regulatory T cells to the damaged tissues is by determining the number of FOXP3 expressing cells per unit area in the affected tissues by immunohistochemistry.
Shortly, single cell suspensions are prepared from the […] and spinal cord. The resulting cells are stained with anti-CD4 antibodies and separated using fluorescent-activated cell sorting. RNA is then extracted and purified and serves as a template for a quantitative RT-PCR reaction with Taqman probes. Finally, the relative amount of each mRNA compared to a house-keeping gene (Hprt) is determined.
An accepted model of experimental autoimmune diabetes in mice is the induction of diabetes by multiple injections of a low dose of streptozotocin (STZ). STZ causes diabetes by direct beta cell cytotoxicity as well as by initiation of T cell-mediated autoimmune attack of β-cells (O'Brian et al., 1996). Using this model the inventors examined if systemic delivery of rhIGF-1 could prevent autoimmune diabetes in the early stages of the disease. […] The inventors therefore addressed the effects of IGF-1 […] and sixty-one days after the treatment was stopped.
First the inventors examined the ability of CsA to suppress IGF-1 activity in vitro. […] Then the inventors tested whether CsA treatment in vivo could also impair IGF-1 protective effect at early stages of the disease. A GTT was performed three weeks from the first STZ injection.

[2] = system: T effector cell proliferation; assay: in vitro suppression of T effector cell proliferation by IGF-1 treated Tregs; format: cell-based; conditions: antigen presenting cells and soluble anti-CD3; Treg:Teff 1:2 to 1:64
[3] = system: FOXP3 positive cells (CD25+ splenic cells); assay: Foxp3 and Ki67 flow cytometric analysis of Treg proliferation; format: cell-based, murine
Description: (§1) To determine the effect of IGF-1 in the regulatory subset in vitro (cf. FIG. 4) the number of FOXP3 positive cells is determined by flow cytometric analysis. To analyze other subsets, like the proinflammatory Th1 and Th17 subsets, a similar approach is used but the number of interferon-gamma (Th1) and IL-17 (Th17) positive cells is determined. Additionally, to evaluate the number of proliferating cells at a given moment cells are stained using the intracellular marker Ki67, which is expressed only in cycling cells. The combination of a specific lineage marker (e.g., Foxp3, IFN-g, IL-17) with Ki67 allows for the determination at a given moment of the cells belonging to a certain subset and their proliferative status.
In animal experiments, the population is isolated normally from murine spleen (but also could be isolated from other tissues, like for example but not restricted to bone marrow, adipose tissue, cord blood derived mononuclear cell, thymus, or peripheral blood) and is sorted using different markers (e.g., CD4 and CD25). This population is defined as CD4+CD25+ and includes the regulatory cells. This population is then treated in the above-mentioned medium in the presence of IGF-1. After several days of culture part of the cells are counted, fixed, permeabilized and analyzed by flow cytometry using an anti-FOXP3 antibody in combination with the same extracellular markers (CD4 and CD25). This allows for the determination of the absolute number of FOXP3 positive cells present in the culture.
To further define the proliferative effects of IGF-1, FACS-sorted CD25+ splenic cells (>98% purity) after two days in culture with recombinant IGF-1 were fixed, permeabilized and stained with antibodies against FOXP3 and Ki67. Foxp3 is a transcription factor that orchestrates the cellular and molecular programs involved in T regulatory function. Ki67 is a nuclear antigen present in proliferating cells. […] After three days of culture the number of FOXP3 positive cells was increased four-fold and the number of regulatory T cells proliferating approximately six-fold.

[4] = system: CD25 negative subset (conventional T cells); assay: in vitro expansion of FACS-sorted splenic CD4+CD25- cells; format: cell-based, murine; conditions: TCR stimulation with anti-CD3 and anti-CD28 antibodies
Excerpt: Initially, and in order to characterize the in vitro effects of IGF-1 on the different populations of the […] immune system, murine splenic CD4 positive cells were sorted by FACS based on the expression of CD25. This allows for the separation and enrichment of conventional T cells (CD25 negative) and regulatory T cells (CD25 positive). […] To exclude the possibility that the observed expansion was due to the anti-apoptotic properties of IGF-1, the cells in culture were stained with AnnexinV (a marker of apoptosis) and a vital dye, and then analyzed by flow cytometry.

[5] = system: proinflamatory subsets Th1 (IFN-gamma+) and Th17 (IL-17+); assay: flow cytometry of polarized Th1 and Th17 subsets; format: cell-based; conditions: 2 day polarization, 3 day incubation with recombinant IGF-1
Description: as §1
An important aspect regarding the immunomodulatory properties of IGF-1 is the specificity of the effect for a certain cellular subset, in this case Tregs. If IGF-1 was a general anabolic factor affecting equally all subsets, it would no affect the balance of pro-inflammatory/anti-inflammatory players. In order to test the hypothesis that IGF-1 induces immune tolerance by specifically affecting the suppressive function, CD4 positive […] cells were polarized for two days into the IFN-gamma secreting Th1 subset and the IL-17 secreting Th17 subset and then incubated with IGF-1.

[6] = dose response curve, 2 days stimulation

Substance: Insulin-like growth factor-1 [IGF-1]
- ratio of CD4:Foxp3 positive cells in the spleen ([1]; IGF-1 treatment, P=0.004): decreased
- Foxp3 mRNA in pancreatic CD4 positive cells ([1]; RT-PCR seven weeks after disease induction, beyond treatment): higher expression
- cell mass and architecture of insulin-producing pancreatic islands (insulin staining) ([1]; day ninety-seven after first STZ injection): long-lasting protective effects
- density of T regulatory cells in pancreas (Foxp3 staining) ([1]; day ninety-seven after first STZ injection, P=0.0159): higher density of T regulatory cells
- glucose control in untreated (non-diabetic) mice ([1]; mice without STZ): no effect
- glucose homeostasis (GTT AUC) after end of treatment ([1]; nice and sixty-one days after treatment was stopped, P37d=0.016, P89d=0.036): long-term improved glucose homeostasis
- blood glucose in glucose tolerance test (GTT) ([1]; three weeks from first STZ injection, four weeks after pump implantation): lower glucose levels
- ability of Treg cells to suppress T effector cell proliferation after treatment [2]: retain their ability to suppress T effector cell proliferation
- dose range at which FOXP3 positive cells respond [3, 6]: falls within physiological ranges
- saturability of stimulated pathway/receptor [3, 6]: saturable
- increase in number of FOXP3 positive cells ([3]; three days of culture): four-fold
- increase in number of regulatory T cells proliferating ([3]; three days of culture): approximately six-fold
- double positive FOXP3 Ki67 population ([3]; two days in culture): increase
- number of FOXP3 positive cells ([3]; two days in culture): increase
- in vitro expansion of CD25 negative subset [4]: no reproducible effect
- cells expressing IFN-gamma (Th1) [5]: no effect
- cells expressing IL-17 (Th17) [5]: no effect
